In experiment [1] the target is T1, human NPC1L1 (Homo sapiens, UniProt Q9UHC9, G1187D/M616T/T1073A).
T1 sequence (Q9UHC9 22-1332 isoform Q9UHC9-2 M616T/T1046A/G1160D limits assumed): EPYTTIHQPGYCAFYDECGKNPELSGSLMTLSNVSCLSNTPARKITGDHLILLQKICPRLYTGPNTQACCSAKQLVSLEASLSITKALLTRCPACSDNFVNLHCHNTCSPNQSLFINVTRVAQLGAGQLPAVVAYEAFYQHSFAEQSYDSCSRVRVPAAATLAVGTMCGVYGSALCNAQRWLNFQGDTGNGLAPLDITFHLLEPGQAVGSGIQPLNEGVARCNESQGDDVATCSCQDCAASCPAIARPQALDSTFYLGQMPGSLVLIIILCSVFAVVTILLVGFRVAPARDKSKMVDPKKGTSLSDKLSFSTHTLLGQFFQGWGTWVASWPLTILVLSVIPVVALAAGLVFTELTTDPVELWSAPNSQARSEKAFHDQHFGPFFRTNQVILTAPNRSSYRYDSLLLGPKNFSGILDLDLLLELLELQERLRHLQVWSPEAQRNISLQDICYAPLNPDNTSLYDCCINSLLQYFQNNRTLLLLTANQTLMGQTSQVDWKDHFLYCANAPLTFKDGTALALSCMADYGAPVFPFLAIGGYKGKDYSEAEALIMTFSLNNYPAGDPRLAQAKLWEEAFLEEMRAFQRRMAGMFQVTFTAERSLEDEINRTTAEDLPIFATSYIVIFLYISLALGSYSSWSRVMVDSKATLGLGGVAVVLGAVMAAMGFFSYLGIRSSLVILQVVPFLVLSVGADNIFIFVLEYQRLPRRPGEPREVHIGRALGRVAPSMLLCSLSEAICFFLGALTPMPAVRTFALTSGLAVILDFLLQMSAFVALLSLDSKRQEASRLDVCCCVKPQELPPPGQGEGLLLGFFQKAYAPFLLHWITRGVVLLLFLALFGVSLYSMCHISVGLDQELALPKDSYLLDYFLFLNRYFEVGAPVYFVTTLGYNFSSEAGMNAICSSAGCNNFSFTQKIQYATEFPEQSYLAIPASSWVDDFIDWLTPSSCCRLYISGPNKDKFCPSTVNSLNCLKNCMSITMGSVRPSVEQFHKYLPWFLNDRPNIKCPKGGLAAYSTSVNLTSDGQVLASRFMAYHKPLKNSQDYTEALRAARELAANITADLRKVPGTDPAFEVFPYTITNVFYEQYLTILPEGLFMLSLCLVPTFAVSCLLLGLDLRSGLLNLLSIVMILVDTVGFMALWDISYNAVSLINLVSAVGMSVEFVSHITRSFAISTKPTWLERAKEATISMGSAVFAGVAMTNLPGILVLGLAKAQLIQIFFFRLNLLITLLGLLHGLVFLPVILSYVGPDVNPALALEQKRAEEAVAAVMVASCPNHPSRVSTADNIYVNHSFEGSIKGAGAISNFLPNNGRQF
Kind of experiment: ^35S-2 competition binding, human NPC1L1 transfected CHO cells. On the set-up: expressed in transfected cells; host or cells: CHO cells (pCDNA3, XbaI/NotI fragment). To be noted: for pKd: 5 nM ^35S-2, 2 hours at 37° C., read-out: affinity (Kd) for human recombinant NPC1L1. As for the experimental part: Human NPC1L1 transfected CHO cells (˜600,000 cells/assay) were incubated with 5 nM ^35S-2 (˜1 million dpm/assay) in buffer A for 2 hours at 37° C. in the absence or presence of increasing concentrations of EZE-glucuronide (compound 1), compounds 2, 3, 5, 6, or 8.

Experiment [2] has as its target T2, rhesus brush border membrane vesicles (Macaca mulatta, UniProt A0MJA5).
T2 sequence (A0MJA5 1-1332): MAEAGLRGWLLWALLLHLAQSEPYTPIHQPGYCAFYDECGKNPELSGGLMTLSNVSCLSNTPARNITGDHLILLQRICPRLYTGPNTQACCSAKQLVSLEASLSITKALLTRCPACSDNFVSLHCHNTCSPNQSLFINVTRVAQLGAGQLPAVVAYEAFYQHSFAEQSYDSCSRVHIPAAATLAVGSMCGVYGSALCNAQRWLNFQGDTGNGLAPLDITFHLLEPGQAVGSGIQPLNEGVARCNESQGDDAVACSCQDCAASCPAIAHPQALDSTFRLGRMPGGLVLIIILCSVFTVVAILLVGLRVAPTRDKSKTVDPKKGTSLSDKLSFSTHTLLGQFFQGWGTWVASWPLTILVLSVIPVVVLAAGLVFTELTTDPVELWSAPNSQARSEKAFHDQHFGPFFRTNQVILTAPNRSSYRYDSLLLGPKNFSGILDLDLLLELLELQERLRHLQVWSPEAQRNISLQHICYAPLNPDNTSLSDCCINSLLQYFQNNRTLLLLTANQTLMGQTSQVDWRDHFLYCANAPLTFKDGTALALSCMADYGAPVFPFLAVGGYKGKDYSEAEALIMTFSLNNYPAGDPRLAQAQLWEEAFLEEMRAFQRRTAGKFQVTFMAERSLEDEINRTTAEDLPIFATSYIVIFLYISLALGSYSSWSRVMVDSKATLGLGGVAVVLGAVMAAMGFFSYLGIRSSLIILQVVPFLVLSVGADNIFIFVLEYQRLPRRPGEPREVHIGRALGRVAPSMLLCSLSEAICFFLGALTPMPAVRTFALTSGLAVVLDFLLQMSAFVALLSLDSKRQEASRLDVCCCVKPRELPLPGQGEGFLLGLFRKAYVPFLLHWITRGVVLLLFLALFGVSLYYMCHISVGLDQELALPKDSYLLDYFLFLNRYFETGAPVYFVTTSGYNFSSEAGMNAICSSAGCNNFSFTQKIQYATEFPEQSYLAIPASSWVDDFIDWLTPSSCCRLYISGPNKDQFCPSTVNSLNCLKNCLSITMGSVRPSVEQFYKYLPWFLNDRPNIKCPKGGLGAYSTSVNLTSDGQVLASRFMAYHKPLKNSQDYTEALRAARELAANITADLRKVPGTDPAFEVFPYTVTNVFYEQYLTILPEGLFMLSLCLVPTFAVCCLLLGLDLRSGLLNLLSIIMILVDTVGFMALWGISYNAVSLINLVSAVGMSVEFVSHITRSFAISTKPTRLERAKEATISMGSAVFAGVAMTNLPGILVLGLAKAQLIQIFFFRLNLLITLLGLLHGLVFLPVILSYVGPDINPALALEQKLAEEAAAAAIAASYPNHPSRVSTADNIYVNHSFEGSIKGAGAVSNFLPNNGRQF
As to the kind of experiment: biochemical.
Procedure: The intestines from freshly sacrificed animals were cut into segments, perfused with ice-cold saline buffer (Buffer A: 26 mM NaHCO3, 0.96 mM NaH2PO4, 5 mM HEPES, 5.5 mM glucose, 117 mM NaCl, 5.4 mM KCl, pH=7.4), placed on cold glass plates, opened longitudinally, and the mucosa scraped with glass microscope slips. This mucosa could be used fresh or frozen with identical results. To prepare the membranes, the mucosal scrapings were resuspended in 20 volumes of cold buffer consisting of 300 mM D-mannitol, 5 mM EGTA, 12 mM Tris, pH 7.4 with HCl, and containing 0.1 mM PMSF and a 1% dilution of a protease inhibitor cocktail (set 1, Calbiochem). They were homogenized using a Polytron at medium speed on ice until inspection with a microscope indicated complete cell lysis. Then, solid MgCl2 was added slowly with stirring to a final concentration of 10 mM, and the solution was kept stirring on ice for 15 min. Cellular debris was removed by centrifugation for 15 min at 3,000 g, and the membranes were recovered by centrifugation for 60 min at 48,000 g. The membranes were further rinsed by re-suspension in a buffer containing 50 mM D-mannitol, 5 mM EGTA, and 2 mM Tris at pH 7.40, and centrifugation for 60 min at 48,000 g. The final pellet was resuspended in 120 mM NaCl and 20 mM Tris at pH 7.40 to a concentration of ˜10-20 mg protein/ml, aliquoted, frozen in liquid nitrogen, and stored at −80 C. The activity was stable indefinitely and could be freeze-thawed with minimal loss of activity.
Binding assay. Assays were conducted in 12×75 mm glass test tubes and total volume 20-100 ul. In general, frozen membranes were diluted in buffer A or buffer A containing 0.03% taurocholate and 0.05% digitonin to a final concentration of 0.02 to 5 mg/ml. […] Competing ligands were likewise added as DMSO solutions to give a total 2-10% organic solvent content. […] At least 2 components of buffer A, the bicarbonate and phosphate salts, were later found to be inconsequential and were routinely omitted.
Bound ligand was quantified by single-tube vacuum filtration using GF/C glass fiber filters. […] Filtration was accomplished by adding 2.5 ml of ice cold buffer (120 mM NaCl, 0.1% sodium cholate, and 20 mM MES at pH 6.70) to the assay tube, pouring the mixture through the filter, and then rinsing the tube and filter twice more with another 2×2.5 ml buffer. The filters were counted in 7 ml vials using Packard DM liquid scintillation fluid.
Data analysis. Data from saturation experiments were subjected to a Scatchard analysis, and linear regression was performed to yield the equilibrium dissociation constant (Kd) and maximum receptor concentration (Bmax). […] Data from competition experiments were analyzed and IC50 values determined from Hill plots of the binding data.

Data on two compounds can be found in US7901893B2, “NPC1L1 (NPC3) and methods of identifying ligands thereof” (Merck Sharp & Dohme Corp., priority 2004, dated 2011).

Structures are written as SMILES. pKd, pKi: −log10 of the molar value.

Regarding `O=C(O)[C@H]1O[C@@H](Oc2ccc([C@@H]3[C@@H](CC[C@H](O)c4ccc(F)cc4)C(=O)N3c3ccc(F)cc3)cc2)[C@H](O)[C@@H](O)[C@@H]1O` [Compound 1, Ezetimibe glucuronide], the pKd (in general, −log10 of the Kd, conventionally taken in molar units) in experiment [1] is 6.04. Moreover, the pKi (as a rule, the Ki on a negative log10 scale, so that one unit is a factor of ten) in experiment [2] was 7.41.

In the case of `CS(=O)(=O)NCC#Cc1ccc(N2C(=O)[C@H](CC[C@H](O)c3ccc(F)cc3)[C@H]2c2ccc(O[C@@H]3O[C@H](C(=O)O)[C@@H](O)[C@H](O)[C@H]3O)cc2)cc1` [Compound 2, 4-[(2S,3R)-3-[(3S)-3 (4-fluorophenyl)-3-hydroxypropyl]-1-(4-{3-[(methylsulfonyl)amino]prop-1-yn-1-yl}phenyl)-4-oxoazetidin-2-yl]phenyl β-D-glucopyranosiduronic acid], in experiment [1], the pKd was 7.68. The “potency relative to ezetimibe glucuronide (1)” value in experiment [1] (human recombinant NPC1L1) is given as “approximately 50 fold”. The pKi in experiment [2] is 7.42.
